Data reported in patent US7799816B2, “Imidazolinylmethyl aryl sulfonamide” (Roche Palo Alto LLC, priority 2008, dated 2010).

Legend:
alpha-1A adrenoceptors = biological target: T1, alpha-1A adrenoceptors (Homo sapiens, UniProt P35348); test: alpha-1A adrenoceptor partial agonist activity (intrinsic activity and pEC50); type: biochemical
T1 sequence (P35348 1-466): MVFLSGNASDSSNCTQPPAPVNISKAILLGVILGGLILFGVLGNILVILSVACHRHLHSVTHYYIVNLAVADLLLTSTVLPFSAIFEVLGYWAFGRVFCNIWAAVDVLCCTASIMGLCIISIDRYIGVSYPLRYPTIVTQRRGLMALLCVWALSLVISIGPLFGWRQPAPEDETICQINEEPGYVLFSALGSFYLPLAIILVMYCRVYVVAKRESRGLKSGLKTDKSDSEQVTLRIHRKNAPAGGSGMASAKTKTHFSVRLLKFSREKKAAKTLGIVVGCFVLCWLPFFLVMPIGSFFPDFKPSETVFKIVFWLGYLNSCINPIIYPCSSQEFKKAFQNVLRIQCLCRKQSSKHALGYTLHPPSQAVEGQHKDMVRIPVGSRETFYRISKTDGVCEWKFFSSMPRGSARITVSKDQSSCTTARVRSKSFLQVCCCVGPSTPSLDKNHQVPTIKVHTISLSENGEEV

[1] = test system: Female Yucatan Micro-Swine; test: Conscious pig model (IUP, MAP, HR); type: in vivo
Protocol: In general, IUP is the intraurethral pressure and is measured as the 2 minute mean from the first peak of the urethral response (FIG. 1). MAP is the mean arterial blood pressure and is measured as the average blood pressure during the 2 minute section where IUP is measured. The durability is the slope of the IUP response in mmHg/min and is calculated immediately after the 2 minute IUP response for 5 minutes (2-7 minutes post the first peak) for the top 3 doses.
Conscious Pig Materials and Methods
Sling Training: Female Yucatan Micro-Swine were trained to stay in a sling for up to 4 hours. Swine were exposed to progressively longer sling durations per IACUC sling-training guideline.
Surgical Instrumentation: Female Yucatan Micro-swine were instrumented with a telemetry device with both pressure and ECG monitoring capabilities (Data Sciences International St Paul Minn.). In addition, a Bardport low profile titanium VAP was placed subcutaneously for blood sampling. All devices were implanted by the surgical veterinarian at Roche Palo Alto. Briefly, the telemetry probe body was placed subcutaneously in the cervical region. The intra-arterial pressure catheter was advanced via the superficial cervical artery into the subclavian artery for blood pressure measurement. The ECG leads were placed intra-muscularly: one in the intercostal muscle between the T8-T10 regions on the left side, and the other in the intercostal muscles between the T1-T3 regions on the right side. The VAP was placed subcutaneously in the neck region, with the catheter advanced into the jugular vein. […]
Experiment: After the swine was fully awake and stable (usually approximately 1 hour post wake up), baseline blood pressure, IUP, and heart rate parameters were determined. […]
Data Generating and Analysis Systems: Cardiovascular readings were generated by the TL11M3-D70-PCP (Data Sciences International, St. Paul, Minn.) telemetry device and associated hardware. […] IUP was monitored by a solid state catheter connected to a TA6000 Polygraph (Data Sciences International, St. Paul, Minn.). […]

CS(=O)(=O)Nc1cc(F)c(CC2=NCCN2)c(Br)c1Br [Formula I, N-[2,3-Dibromo-4-(4,5-dihydro-1H-imidazol-2-ylmethyl)-5-fluoro-phenyl]-methanesulfonamide]
intrinsic activity, or efficacy, as a partial agonist (alpha-1A adrenoceptors; ideally between 0.35 to 0.60): 0.38 | EC50 (alpha-1A adrenoceptors; read-out: affinity, or pEC50 value (converted)): 200 nM | maximum arterial blood pressure effect [1]: low maximum arterial blood pressure effect | selectivity for enhancement of intraurethral pressure (IUP) over blood pressure (MAP) [1]: selectivity for enhancement of intraurethral pressure (IUP) over blood pressure (MAP) | durability of IUP response over time ([1]; iv infusion, compared to analogue compound (FIG. 1b vs FIG. 1c)): unexpectedly increased durability of IUP response over time
